“Also recorded” adds a separate entry of the source.
Legend:
[1] = tested on: fibroblasts with severe carnitine/acylcarnitine translocase deficiency (TRANSLOCASE); assay: Tandem mass spectrometry assay of labeled fatty acid oxidation in cultured cells; type: cell-based, human; details: translocase-deficient fibroblasts; for accumulation of labeled acylcarnitine of the precursor: m/z417 for D3-C16, m/z305 for D3-C8, m/z319 for D3-C9
Experimental: (§1) Fibroblasts taken from the deceased sibling and amniocytes taken from the fetus were both evaluated for fatty acid metabolism of n-heptanoic acid (C7) using a tandem mass spectrometry assay previously reported. (Yang, et al. 1998. “Identification of four novel mutations in patients with carnitine palmitoyltransferase II (CPT II) deficiency,” Mol Genet Metab 64:229-236). […] Each cell line was incubated separately with 7-^2H3-heptanoate (D3-C7), 8-^2H3-octanoate (D3-C8), 9-^2H3-nonanoate (D3-C9), and 16-^2H3-palmitate (D3-C16).
(§2) The normal cell line and eleven abnormal cell lines were analyzed in groups of three. For quantitative purposes, labeled internal standards were included in each analysis and are designated as “IS” on the first profile in each group. The mass numbers for these standards are: m/z420 (^2H6-palmitate-C16), m/z308 (^2H6-octanoate-C8), m/z269 (^2H9-isovaleric-C5) , and m/z237 (^2H5-propionate-C3), wherein m/z is the mass:charge ratio.
(§3) This relative ammount of m/z235 (^2H3-propionate-C3) is compared to the level of the internal standards at m/z269 (^2H9-isovaleric-C5) and m/z237 (^2H5-propionate-C3).

[2] = tested on: carnitine palmitoyltransferase II (CPT II) deficient fibroblasts; assay: Tandem mass spectrometry assay of labeled fatty acid oxidation; type: cell-based, human; details: for accumulation of labeled acylcarnitine of the precursor: m/z417 for D3-C16, m/z319 for D3-C9
Experimental: as §1, §2, §3

[3] = tested on: long-chain L-3-hydroxy-acyl-CoA dehydrogenase (LCHAD) deficient fibroblasts; assay: as above; type: cell-based, human
Experimental: as §1, §2, §3

[4] = tested on: amniocytes from a fetus with severe translocase deficiency; assay: Tandem mass spectrometry assay of fatty acid oxidation in amniocytes; type: cell-based, human; details: translocase-deficient amniocytes
Description: Because a sibling had died at the age of four days from severe translocase deficiency, amniocytes obtained from a fetus were examined for competency in fatty acid metabolism. […] Fibroblasts taken from the deceased sibling and amniocytes taken from the fetus were both evaluated for fatty acid metabolism of n-heptanoic acid (C7) using a tandem mass spectrometry assay previously reported. (Yang, et al. 1998. “Identification of four novel mutations in patients with carnitine palmitoyltransferase II (CPT II) deficiency,” Mol Genet Metab 64:229-236). […]

[5] = tested on: medium-chain acyl-CoA dehydrogenase (MCAD) deficient fibroblasts; assay: Tandem mass spectrometry assay of labeled fatty acid oxidation; type: cell-based, human; details: for accumulation of labeled acylcarnitine: C8 m/z305.3 from D3-C16, m/z305 for D3-C8, m/z291 heptanoylcarnitine for D3-C7
Experimental: as §1, §2, §3

fasting rats = details: rats fed the triglyceride; Anderson et al. 1975; cited from earlier work
[6] = tested on: electron transfer flavoprotein QO dehydrogenase-severe (ETF-DH severe) deficient fibroblasts; assay: Tandem mass spectrometry assay of labeled fatty acid oxidation; type: cell-based, human
Experimental: as §1, §2, §3

[7] = tested on: carnitine palmitoyltransferase I (CPT I) deficient fibroblasts; assay: as above; type: cell-based, human
Experimental: as §1, §2, §3

[8] = tested on: electron transfer flavoprotein QO dehydrogenase-mild (ETF-DH mild) deficient fibroblasts; assay: as above; type: cell-based, human
Experimental: as §1, §2, §3

[9] = tested on: VLCAD-H (hypoglycemic form of very-long-chain acyl-CoA dehydrogenase) deficient fibroblasts; assay: as above; type: cell-based, human
Experimental: as §1, §2, §3

[10] = tested on: VLCAD-C (cardiac form of very-long-chain acyl-CoA dehydrogenase) deficient fibroblasts; assay: as above; type: cell-based, human
Experimental: as §1, §2, §3

[11] = tested on: short-chain acyl-CoA dehydrogenase (SCAD) deficient fibroblasts; assay: as above; type: cell-based, human
Experimental: as §1, §2, §3

[12] = tested on: mitochondrial trifunctional protein (TRIFUNCTIONAL) deficient fibroblasts; assay: as above; type: cell-based, human
Experimental: as §1, §2, §3

normal fibroblasts = assay: as above; type: cell-based, human
Description: Fibroblasts taken from the deceased sibling and amniocytes taken from the fetus were both evaluated for fatty acid metabolism of n-heptanoic acid (C7) using a tandem mass spectrometry assay previously reported. (Yang, et al. 1998. “Identification of four novel mutations in patients with carnitine palmitoyltransferase II (CPT II) deficiency,” Mol Genet Metab 64:229-236). The mass spectrometry results are presented for palmitate in FIG. 3A and triheptanoin in FIG. 3B for the fibroblasts taken from the deceased sibling, and for palmitate in FIG. 4A and triheptanoin in FIG. 4B for the amniocytes taken from the fetus. […]
The normal cell line and eleven abnormal cell lines were analyzed in groups of three. For quantitative purposes, labeled internal standards were included in each analysis and are designated as “IS” on the first profile in each group. […]

[2H]C([2H])([2H])CCCCCCCC(=O)O [D3-C9, 9-^2H3-nonanoate]
accumulation of labeled acylcarnitine of the precursor [1]: an increase was observed at m/z319
accumulation of labeled acylcarnitine of the precursor [2]: an increase was observed at m/z319
accumulation of labeled acylcarnitine of the precursor ([3]; m/z319 for D3-C9): an increase was observed at m/z319

CCCCCCC(=O)O [n-heptanoic acid]
oxidation of the fatty acid (labeled acylcarnitine profile) [1]: successful oxidation; also recorded: readily oxidized to propionyl-CoA
oxidation of the fatty acid [4]: readily oxidized to propionyl-CoA

[2H]C([2H])([2H])CCCCCCC(=O)O [D3-C8, 8-^2H3-octanoate]
accumulation of labeled acylcarnitine of the precursor [1]: relative accumulation of m/z 305
accumulation of labeled acylcarnitine [5]: relative accumulation of m/z 305

CCCCCCCCCCC(=O)OCC(COC(=O)CCCCCCCCCC)OC(=O)CCCCCCCCCC [triundecanoin]
blood glucose levels during prolonged fasting (fasting rats): maintain nonfasting blood glucose levels during prolonged fasting

[2H]C([2H])([2H])CCCCCC(=O)O [D3-C7, 7-^2H3-heptanoate]
relative amount of 2H3-propionate-C3 (m/z235) produced ([1]; compared to normal cells): either comparable to or in excess of the amount seen in normal cells
oxidation of the fatty acid (labeled acylcarnitine profile) [6]: no oxidation of labeled 7-^2H3-heptanoate was observed
relative amount of 2H3-propionate-C3 (m/z235) produced ([2]; compared to normal cells): either comparable to or in excess of the amount seen in normal cells
relative amount of 2H3-propionate-C3 (m/z235) produced ([7]; compared to normal cells): either comparable to or in excess of the amount seen in normal cells
oxidation of the fatty acid (labeled acylcarnitine profile) [8]: no oxidation of labeled 7-^2H3-heptanoate was observed
accumulation of labeled acylcarnitine [5]: markedly increased
relative amount of 2H3-propionate-C3 (m/z235) produced ([9]; compared to normal cells): either comparable to or in excess of the amount seen in normal cells
relative amount of 2H3-propionate-C3 (m/z235) produced ([10]; compared to normal cells): either comparable to or in excess of the amount seen in normal cells
relative amount of 2H3-propionate-C3 (m/z235) produced ([3]; compared to normal cells): either comparable to or in excess of the amount seen in normal cells
relative amount of 2H3-propionate-C3 (m/z235) produced ([11]; compared to normal cells): either comparable to or in excess of the amount seen in normal cells
relative amount of 2H3-propionate-C3 (m/z235) produced ([12]; compared to normal cells): either comparable to or in excess of the amount seen in normal cells

[2H]C([2H])([2H])CCCCCCCCCCCCCCC(=O)O [D3-C16, 16-^2H3-palmitate]
profile of labeled acylcarnitine intermediates (normal fibroblasts): from C16 down to and including C4
oxidation of the fatty acid (labeled acylcarnitine profile) [1]: no oxidation occurs
accumulation of labeled acylcarnitine of the precursor [1]: large quantities of labeled palmitoylcarnitine
oxidation of the fatty acid (labeled acylcarnitine profile) [6]: abnormal profiles of labeled acylcarnitines
oxidation of the fatty acid (labeled acylcarnitine profile) [2]: no oxidation occurs
accumulation of labeled acylcarnitine of the precursor [2]: large quantities of labeled palmitoylcarnitine
amount of labeled palmitoylcarnitine (m/z417) [7]: minimal amount
oxidation of the fatty acid (labeled acylcarnitine profile) [7]: virtually no oxidation occurs
oxidation of the fatty acid (labeled acylcarnitine profile) [8]: abnormal profiles of labeled acylcarnitines
oxidation of the fatty acid (labeled acylcarnitine profile) [5]: oxidation clearly proceed down to the level of C8
accumulation of labeled acylcarnitine [5]: marked accumulation
profile of labeled acylcarnitines [9]: abnormal profiles of labeled acylcarnitines
profile of labeled acylcarnitines [10]: abnormal profiles of labeled acylcarnitines
profile of labeled acylcarnitines [3]: abnormal profiles of labeled acylcarnitines
oxidation of the fatty acid (labeled acylcarnitine profile) [11]: oxidation stops at m/z249
profile of labeled acylcarnitines [12]: abnormal profiles of labeled acylcarnitines
